Assay results as given in ChEMBL document CHEMBL1177848, “Synthesis of novel 6,6a,7,8-tetrahydro-5H-naphtho[1,2-e]pyrimido[4,5-b][1,4]diazepines under microwave irradiation as potential anti-tumor agents” (2010).
Calls of active or inactive are those of the source. The rule behind the calls is not given here.

Key:
MDA-MB-468 [1] = assay: Growth inhibition of human MDA-MB-468 cells at 1 uM after 48 hrs by sulforhodamine B assay; type: functional, cell-based
SF-295 [2] = assay: Growth inhibition of human SF295 cells at 1 uM after 48 hrs by sulforhodamine B assay; type: functional, cell-based
SW-620 [3] = assay: Growth inhibition of human SW620 cells at 1 uM after 48 hrs by sulforhodamine B assay; type: functional, cell-based
NCI/ADR-RES = assay: Growth inhibition of human NCI/ADR-RES cells after 48 hrs by sulforhodamine B assay; type: functional
MCF7 [4] = assay: Growth inhibition of human MCF7 cells at 1 uM after 48 hrs by sulforhodamine B assay; type: functional, cell-based
MCF7 [5] = assay: Growth inhibition of human MCF7 cells after 48 hrs by sulforhodamine B assay; type: functional; details: MCF7, 48 h
IGROV-1 [6] = assay: Growth inhibition of human IGROV1 cells at 1 uM after 48 hrs by sulforhodamine B assay; type: functional, cell-based
U-251 = assay: Growth inhibition of human U251 cells at 1 uM after 48 hrs by sulforhodamine B assay; type: functional, cell-based
SF-268 = assay: Growth inhibition of human SF268 cells at 1 uM after 48 hrs by sulforhodamine B assay; type: functional, cell-based
CCRF-CEM = assay: Growth inhibition of human CCRF-CEM cells at 1 uM after 48 hrs by sulforhodamine B assay; type: functional, cell-based
NCI-H226 = assay: Growth inhibition of human NCI-H226 cells after 48 hrs by sulforhodamine B assay; type: functional; details: NCI-H226, 48 h
RXF 393 [7] = assay: Growth inhibition of human RXF393 cells at 1 uM after 48 hrs by sulforhodamine B assay; type: functional, cell-based
SK-MEL-5 [8] = assay: Growth inhibition of human SK-MEL-5 cells after 48 hrs by sulforhodamine B assay; type: functional; details: SK-MEL-5, 48 h
HT-29 = assay: Growth inhibition of human HT-29 cells after 48 hrs by sulforhodamine B assay; type: functional; details: HT-29, 48 h; for CC50: read-out: LC50 (the source's name)
RPMI-8226 [9] = assay: Growth inhibition of human RPMI8226 cells after 48 hrs by sulforhodamine B assay; type: functional; details: RPMI-8226, 48 h
MDA-MB-231 = assay: Growth inhibition of human MDA-MB-231 cells at 1 uM after 48 hrs by sulforhodamine B assay; type: functional, cell-based
T47D = assay: Growth inhibition of human T47D cells after 48 hrs by sulforhodamine B assay; type: functional; details: for CC50: read-out: LC50 (the source's name)
IGROV-1 [10] = assay: Growth inhibition of human IGROV1 cells after 48 hrs by sulforhodamine B assay; type: functional; details: IGROV-1, 48 h
SK-MEL-5 [11] = assay: Growth inhibition of human SK-MEL-5 cells at 1 uM after 48 hrs by sulforhodamine B assay; type: functional, cell-based
UACC-257 = assay: Growth inhibition of human UACC257 cells at 1 uM after 48 hrs by sulforhodamine B assay; type: functional, cell-based
SW-620 [12] = assay: Growth inhibition of human SW620 cells after 48 hrs by sulforhodamine B assay; type: functional; details: SW-620, 48 h
NCI-H522 = assay: Growth inhibition of human NCI-H522 cells after 48 hrs by sulforhodamine B assay; type: functional; details: NCI-H522, 48 h
SF-295 [13] = assay: Growth inhibition of human SF295 cells after 48 hrs by sulforhodamine B assay; type: functional; details: SF-295, 48 h
A498 = assay: Growth inhibition of human A498 cells after 48 hrs by sulforhodamine B assay; type: functional; details: A498, 48 h
SNB-75 = assay: Growth inhibition of human SNB75 cells at 1 uM after 48 hrs by sulforhodamine B assay; type: functional, cell-based
LOX IMVI [14] = assay: Growth inhibition of human LOXIMVI cells at 1 uM after 48 hrs by sulforhodamine B assay; type: functional, cell-based
NCI-H460 = assay: Growth inhibition of human NCI-H460 cells at 1 uM after 48 hrs by sulforhodamine B assay; type: functional, cell-based
BT-549 = assay: Growth inhibition of human BT549 cells at 1 uM after 48 hrs by sulforhodamine B assay; type: functional, cell-based
COLO 205 [15] = assay: Growth inhibition of human COLO205 cells at 1 uM after 48 hrs by sulforhodamine B assay; type: functional, cell-based
SR = assay: Growth inhibition of human SR cells at 1 uM after 48 hrs by sulforhodamine B assay; type: functional, cell-based
A549 = assay: Growth inhibition of human A549 cells at 1 uM after 48 hrs by sulforhodamine B assay; type: functional, cell-based
RXF 393 [16] = assay: Growth inhibition of human RXF393 cells after 48 hrs by sulforhodamine B assay; type: functional; details: RXF 393, 48 h
SN12C = assay: Growth inhibition of human SN12C cells at 1 uM after 48 hrs by sulforhodamine B assay; type: functional, cell-based
LOX IMVI [17] = assay: Growth inhibition of human LOXIMVI cells after 48 hrs by sulforhodamine B assay; type: functional
UO-31 = assay: Growth inhibition of human UO31 cells after 48 hrs by sulforhodamine B assay; type: functional; details: UO-31, 48 h
HCC 2998 = assay: Growth inhibition of human HCC2998 cells at 1 uM after 48 hrs by sulforhodamine B assay; type: functional, cell-based
NCI-H23 = assay: Growth inhibition of human NCI-H23 cells at 1 uM after 48 hrs by sulforhodamine B assay; type: functional, cell-based
COLO 205 [18] = assay: Growth inhibition of human COLO205 cells after 48 hrs by sulforhodamine B assay; type: functional; details: COLO 205, 48 h
HCT-15 = assay: Growth inhibition of human HCT15 cells at 1 uM after 48 hrs by sulforhodamine B assay; type: functional, cell-based
KM12 = assay: Growth inhibition of human KM12 cells at 1 uM after 48 hrs by sulforhodamine B assay; type: functional, cell-based
PC-3 = assay: Growth inhibition of human PC3 cells at 1 uM after 48 hrs by sulforhodamine B assay; type: functional, cell-based
SF-539 = assay: Growth inhibition of human SF539 cells at 1 uM after 48 hrs by sulforhodamine B assay; type: functional, cell-based
OVCAR-8 = assay: Growth inhibition of human OVCAR8 cells at 1 uM after 48 hrs by sulforhodamine B assay; type: functional, cell-based
UACC-62 = assay: Growth inhibition of human UACC62 cells after 48 hrs by sulforhodamine B assay; type: functional; details: UACC-62, 48 h
RPMI-8226 [19] = assay: Growth inhibition of human RPMI8226 cells at 1 uM after 48 hrs by sulforhodamine B assay; type: functional, cell-based
MDA-MB-468 [20] = assay: Growth inhibition of human MDA-MB-468 cells after 48 hrs by sulforhodamine B assay; type: functional; details: MDA-MB-468, 48 h; for CC50: read-out: LC50 (the source's name)
TK-10 = assay: Growth inhibition of human TK10 cells at 1 uM after 48 hrs by sulforhodamine B assay; type: functional, cell-based

Nc1nc(N)c2c(n1)NC(c1ccccc1)C1CCc3ccccc3C1=N2 (stereo not given)
growth inhibition (GI) (MDA-MB-468 [1]): inactive
growth inhibition (GI) (SF-295 [2]): inactive
growth inhibition (GI) (SW-620 [3]): inactive
GI50 (NCI/ADR-RES): 3.13 µM
LC50 (concentration killing 50% of cells) (NCI/ADR-RES): > 100 µM
growth inhibition (GI) (MCF7 [4]): inactive
GI50 (MCF7 [5]): 3.25 µM
LC50 (MCF7 [5]): 46.7 µM
growth inhibition (GI) (IGROV-1 [6]): inactive
growth inhibition (GI) (U-251): inactive
growth inhibition (GI) (SF-268): inactive
growth inhibition (GI) (CCRF-CEM): inactive
GI50 (NCI-H226): 5.96 µM
LC50 (NCI-H226): > 100 µM
growth inhibition (GI) (RXF 393 [7]): inactive
GI50 (SK-MEL-5 [8]): 0.638 µM
LC50 (SK-MEL-5 [8]): 6.35 µM
GI50 (HT-29): 3.66 µM
CC50 (HT-29): 38 µM
GI50 (RPMI-8226 [9]): 3.21 µM
LC50 (RPMI-8226 [9]): > 100 µM
growth inhibition (GI) (MDA-MB-231): inactive
GI50 (T47D): 4.57 µM
CC50 (T47D): > 100 µM
GI50 (IGROV-1 [10]): 4.45 µM
LC50 (concentration killing 50% of cells) (IGROV-1 [10]): 62.3 µM
growth inhibition (GI) (SK-MEL-5 [11]): inactive
growth inhibition (GI) (UACC-257): inactive
GI50 (SW-620 [12]): 6.3 µM
LC50 (SW-620 [12]): 53.3 µM
GI50 (NCI-H522): 4.53 µM
LC50 (NCI-H522): 65.4 µM
GI50 (SF-295 [13]): 1.69 µM
LC50 (50% lethal concentration) (SF-295 [13]): 34.4 µM
GI50 (A498): 2.29 µM
LC50 (A498): 30.2 µM
growth inhibition (GI) (SNB-75): inactive
growth inhibition (GI) (LOX IMVI [14]): inactive
growth inhibition (GI) (NCI-H460): inactive
growth inhibition (GI) (BT-549): inactive
growth inhibition (GI) (COLO 205 [15]): inactive
growth inhibition (GI) (SR): inactive
growth inhibition (GI) (A549): inactive
GI50 (RXF 393 [16]): 4.89 µM
LC50 (50% lethal concentration) (RXF 393 [16]): 66.7 µM
growth inhibition (GI) (SN12C): inactive
GI50 (LOX IMVI [17]): 3.79 µM
LC50 (LOX IMVI [17]): 40.6 µM
GI50 (UO-31): 2.5 µM
LC50 (UO-31): 45 µM
growth inhibition (GI) (HCC 2998): inactive
growth inhibition (GI) (NCI-H23): inactive
GI50 (COLO 205 [18]): 3.07 µM
LC50 (50% lethal concentration) (COLO 205 [18]): 38.7 µM
growth inhibition (GI) (HCT-15): inactive
growth inhibition (GI) (KM12): inactive
growth inhibition (GI) (PC-3): inactive
growth inhibition (GI) (SF-539): inactive
growth inhibition (GI) (OVCAR-8): inactive
GI50 (UACC-62): 3.11 µM
LC50 (UACC-62): 45 µM
growth inhibition (GI) (RPMI-8226 [19]): inactive
GI50 (MDA-MB-468 [20]): 0.473 µM
CC50 (MDA-MB-468 [20]): 20.8 µM
growth inhibition (GI) (TK-10): inactive

Nc1nc(N)c2c(n1)NC(c1ccc(Cl)cc1)C1CCc3ccccc3C1=N2 (stereo not given)
growth inhibition (GI) (MDA-MB-468 [1]): inactive
growth inhibition (GI) (SF-295 [2]): inactive
growth inhibition (GI) (SW-620 [3]): inactive
GI50 (NCI/ADR-RES): 5.53 µM
LC50 (concentration killing 50% of cells) (NCI/ADR-RES): 43.8 µM
growth inhibition (GI) (MCF7 [4]): inactive
GI50 (MCF7 [5]): 2.41 µM
LC50 (MCF7 [5]): 33.7 µM
growth inhibition (GI) (IGROV-1 [6]): inactive
growth inhibition (GI) (U-251): inactive
growth inhibition (GI) (SF-268): inactive
growth inhibition (GI) (CCRF-CEM): inactive
GI50 (NCI-H226): 8.58 µM
LC50 (NCI-H226): 80.6 µM
growth inhibition (GI) (RXF 393 [7]): inactive
GI50 (SK-MEL-5 [8]): 0.5 µM
LC50 (SK-MEL-5 [8]): 6.56 µM
GI50 (HT-29): 4.31 µM
CC50 (HT-29): 52.6 µM
GI50 (RPMI-8226 [9]): 2.75 µM
LC50 (RPMI-8226 [9]): 57.9 µM
growth inhibition (GI) (MDA-MB-231): inactive
GI50 (T47D): 4.09 µM
CC50 (T47D): 59.8 µM
GI50 (IGROV-1 [10]): 6.16 µM
LC50 (concentration killing 50% of cells) (IGROV-1 [10]): 49.9 µM
growth inhibition (GI) (SK-MEL-5 [11]): inactive
growth inhibition (GI) (UACC-257): inactive
GI50 (SW-620 [12]): 8.23 µM
LC50 (SW-620 [12]): 54.9 µM
GI50 (NCI-H522): 5.21 µM
LC50 (NCI-H522): 54.4 µM
GI50 (SF-295 [13]): 3.37 µM
LC50 (50% lethal concentration) (SF-295 [13]): 40.7 µM
GI50 (A498): 5.34 µM
LC50 (A498): 44.9 µM
growth inhibition (GI) (SNB-75): inactive
growth inhibition (GI) (LOX IMVI [14]): inactive
growth inhibition (GI) (NCI-H460): inactive
growth inhibition (GI) (BT-549): inactive
growth inhibition (GI) (COLO 205 [15]): inactive
growth inhibition (GI) (SR): inactive
growth inhibition (GI) (A549): inactive
GI50 (RXF 393 [16]): 4.68 µM
LC50 (50% lethal concentration) (RXF 393 [16]): 54.4 µM
growth inhibition (GI) (SN12C): inactive
GI50 (LOX IMVI [17]): 3.53 µM
LC50 (LOX IMVI [17]): 44.5 µM
GI50 (UO-31): 3.63 µM
LC50 (UO-31): 46.2 µM
growth inhibition (GI) (HCC 2998): inactive
growth inhibition (GI) (NCI-H23): inactive
GI50 (COLO 205 [18]): 2.78 µM
LC50 (50% lethal concentration) (COLO 205 [18]): 30.1 µM
growth inhibition (GI) (HCT-15): inactive
growth inhibition (GI) (KM12): inactive
growth inhibition (GI) (PC-3): inactive
growth inhibition (GI) (SF-539): inactive
growth inhibition (GI) (OVCAR-8): inactive
GI50 (UACC-62): 3.66 µM
LC50 (UACC-62): 43.3 µM
growth inhibition (GI) (RPMI-8226 [19]): inactive
GI50 (MDA-MB-468 [20]): 1.6 µM
CC50 (MDA-MB-468 [20]): 54.5 µM
growth inhibition (GI) (TK-10): inactive
